Laboratory results from PMC9736291 (International Journal of Molecular Sciences, 2022).
pIC50: −log10 of the molar value. Where two headings read alike, the source gives them in different places.

What was measured:
[1] = system: PrP^C; type: cell-based, human; settings: ReN VM ATP1A1^r/r cells whose ATP1A1 does not bind CGs
[2] = system: PrP^C; type: cell-based, human; settings: differentiated T98G cells
[3] = in vitro; settings: guinea pig, brain homogenate
[4] = Atp1a1^S/S (gene-edited), mouse, in vivo; for Abrain / Cbrain (mean total brain concentration) / Cu,brain (unbound brain concentration): 0.6 mg/kg
[5] = system: ReN VM cells; settings: human
[6] = system: PrP^C; type: cell-based, human
[7] = cited from earlier work
[8] = in vitro; settings: both, human, brain homogenate
[9] = system: HeLa cells; settings: cited from earlier work
[10] = in vitro; settings: Atp1a1^S/S (gene-edited), mouse, brain homogenate
[11] = molecular target: human MDR1 (P-glycoprotein, ABCB1) (Homo sapiens, UniProt P08183); experiment: in vitro; settings: dog; for Papp A→B: MDCK-MDR1, Papp A–B; for Papp B→A: MDCK-MDR1, Papp B–A
[12] = in vivo; settings: Atp1a1^S/S (gene-edited), mouse
[13] = in vitro; settings: guinea pig, plasma
[14] = molecular target: T1, human MDR1 (Homo sapiens, UniProt P08183); settings: dog, MDCK-MDR1
[15] = molecular target: T1, human MDR1; design: host or cells: MDCKII (canine kidney) cells, canine MDR1 deleted, human MDR1 gene inserted; method as in PMID 22906709, PMID 15620875; settings: published values; cited from earlier work
[16] = system: ReN VM cells; settings: cited from earlier work
[17] = in vivo, po; cited from earlier work
[18] = in vivo, iv; cited from earlier work

T1 sequence (P08183 whole entry): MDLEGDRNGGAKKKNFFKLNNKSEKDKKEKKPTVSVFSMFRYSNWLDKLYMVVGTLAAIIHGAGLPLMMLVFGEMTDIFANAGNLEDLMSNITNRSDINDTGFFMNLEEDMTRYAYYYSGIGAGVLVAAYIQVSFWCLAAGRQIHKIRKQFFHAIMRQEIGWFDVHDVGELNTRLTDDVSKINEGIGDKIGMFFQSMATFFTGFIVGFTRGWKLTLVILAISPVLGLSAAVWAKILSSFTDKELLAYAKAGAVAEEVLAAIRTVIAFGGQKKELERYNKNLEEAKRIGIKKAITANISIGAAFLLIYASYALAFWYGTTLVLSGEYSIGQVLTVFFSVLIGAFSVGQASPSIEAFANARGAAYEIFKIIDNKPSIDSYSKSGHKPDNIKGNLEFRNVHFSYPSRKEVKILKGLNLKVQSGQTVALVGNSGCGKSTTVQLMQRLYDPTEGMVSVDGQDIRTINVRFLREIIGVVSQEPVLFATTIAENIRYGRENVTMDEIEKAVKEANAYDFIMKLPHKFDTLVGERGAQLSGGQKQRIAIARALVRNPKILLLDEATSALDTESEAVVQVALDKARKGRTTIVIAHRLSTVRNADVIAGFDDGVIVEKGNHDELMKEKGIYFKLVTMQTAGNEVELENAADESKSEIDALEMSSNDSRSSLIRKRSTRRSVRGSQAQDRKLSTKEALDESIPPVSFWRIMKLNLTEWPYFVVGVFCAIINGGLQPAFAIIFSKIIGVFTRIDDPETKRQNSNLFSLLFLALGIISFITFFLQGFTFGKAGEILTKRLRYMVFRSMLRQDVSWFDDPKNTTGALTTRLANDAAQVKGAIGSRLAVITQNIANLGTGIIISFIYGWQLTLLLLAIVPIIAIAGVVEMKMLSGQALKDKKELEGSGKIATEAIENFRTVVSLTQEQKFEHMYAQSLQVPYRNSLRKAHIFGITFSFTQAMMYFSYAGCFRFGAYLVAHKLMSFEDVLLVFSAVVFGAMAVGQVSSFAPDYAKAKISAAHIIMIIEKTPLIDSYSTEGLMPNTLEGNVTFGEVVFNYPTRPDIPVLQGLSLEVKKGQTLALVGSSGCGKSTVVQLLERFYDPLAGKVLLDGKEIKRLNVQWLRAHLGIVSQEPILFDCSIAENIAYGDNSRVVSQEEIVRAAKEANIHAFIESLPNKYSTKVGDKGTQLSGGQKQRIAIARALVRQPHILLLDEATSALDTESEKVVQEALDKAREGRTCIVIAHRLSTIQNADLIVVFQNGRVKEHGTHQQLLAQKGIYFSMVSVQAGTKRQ
Sequence of human MDR1 (P-glycoprotein, ABCB1) (P08183 whole entry): as above

SMILES	fraction unbound [3]	Vu,brain [4] [mL/g brain]	Abrain ([4]; sc) [ng/g brain]	Cbrain (mean total brain concentration) ([4]; sc) [nM]	Cu,brain (unbound brain concentration) ([4]; sc) [nM]	toxicity threshold (concentration at which all three cellular health indicators dropped to 75% of untreated) [5] [nM]	fraction unbound [8]	fraction unbound [10]	Papp A→B [11] [nm/s]	Papp B→A [11] [nm/s]	Kp uu [12]	estimated total brain concentration attainable in human brains [nM]	fraction unbound [13]	Papp B–A [14]	also measured
COC1CC(OC2CCC3(C)C(CCC4C3CCC3(C)C(C5=CC(=O)OC5)C(OC(C)=O)CC43O)C2)OC(C)C1=O (centres unmarked) [KDC203, 4′-dehydro-oleandrin]	0.294	2.90	16.75	30.46	10.05	46	0.395	0.33	116	419	0.44	27	0.359	70.60	reduction in PrP^C levels [1]: no KDC203-mediated reduction in PrP^C levels was observed; reduction in PrP^C levels [2]: recapitulate the KDC203-dependent reduction in PrP^C levels; brain levels relative to heart levels ([4]; sc): 3.5 fold; total brain concentration of KDC203 relative to oleandrin ([4]; sc): 1.5 fold; concentrations at which cytotoxicity observed [5]: > 0.04 µM; maximum reduction in steady-state PrP^C levels (3F4-reactive signals) [6]: 84%; oral effectiveness relative to oleandrin (lethal doses oral versus intravenous), higher by ([7]; cats): approximately 20%; oral toxicity relative to oleandrin ([7]; in vivo, po): almost twofold lower; pIC50 [9]: 7.34; estimated unbound concentration attainable in human brains: ~10 nM; Papp A–B [14]: 7.24; reduction of extrusion on addition of Zosuquidar [14]: more than 50%
C[C@H]1O[C@@H](O[C@H]2[C@@H](O)C[C@H](O[C@H]3[C@@H](O)C[C@H](O[C@H]4CC[C@@]5(C)[C@H](CC[C@@H]6[C@@H]5C[C@@H](O)[C@]5(C)[C@@H](C7=CC(=O)OC7)CC[C@]65O)C4)O[C@@H]3C)O[C@@H]2C)C[C@H](O)[C@@H]1O [digoxin]															PappA-B, published value [15]: 5 nm/s
CO[C@H]1C[C@H](O[C@H]2CC[C@@]3(C)[C@H](CC[C@@H]4[C@@H]3CC[C@]3(C)[C@@H](C5=CC(=O)OC5)[C@@H](OC(C)=O)C[C@]43O)C2)O[C@@H](C)[C@@H]1O [oleandrin, reference compound]	0.219	3.98	10.58	19.23	4.61	2.7	0.316	0.24	70.6	1460	0.27	≤ 18	0.219	145.79	concentrations at which toxic [16]: exceeding 4 nM; plasma levels [17]: 0.003 µM; cerebrum levels relative to plasma levels [18]: 6 fold
